This is an account of results in patent publication US9079964B2, “Immunoassay for cyclopropylindole based synthetic cannabinoids, metabolites and derivatives thereof” (Randox Laboratories Limited, priority 2013, dated 2015).

Structures are written as SMILES.

Test [1] concerns antiserum raised to Immunogen I. Description: Competitive ELISA with IgG fraction of antiserum raised to Immunogen I (second bleed) and hapten 1-HRP detecting agent. The test is classed as binding, sheep. The protocol:
(§1) The wells of an enhanced binding 96 well polystyrene microtiter plate were coated with IgG fraction of antiserum raised to Immunogen I or II, diluted in 10 mM Tris, pH 8.5 (125 μl/well). The appropriate antibody coating dilution was determined using standard ELISA checkerboard techniques. The plate was incubated overnight at 4° C., washed 4 times over 10 minutes with Tris buffered saline containing Tween20 (TBST) and tapped dry. Standard solutions (UR-144 N-pentanoic acid) were applied at 0, 0.625, 1.25, 2.5, 5, 10, 20 and 40 ng/ml and 50 μl of each was added to the appropriate wells. 75 μl of conjugate (appropriate hapten-HRP) diluted in Tris buffer (pH 7.2) containing EDTA, D-mannitol, sucrose, thimerosol and BSA, was added to each of the wells. The appropriate dilution of conjugate was also determined using standard ELISA checkerboard techniques. The plate was incubated at 25° C. for 1 hour. Excess unbound conjugate was removed by washing 6 times over a ten minute period with TBST. 125 μl of tetramethylbenzidine (TMB) substrate solution was added to each well of the plate that was then incubated for 20 minutes in the dark at room temperature. The reaction was terminated by addition of 125 μl of 0.2 M H2SO4 to each well. The absorbance was then measured at 450 nm using a microtiter plate reader. The data are inputted to a computer program called ‘KC Junior’ (Biotek). It gives a 4 parameter fit curve and allows the calculation of concentrations between the standard runs. This program is used to calculate the IC50 values by dividing the 0 ng/ml optical density (OD) value by 2 and obtaining the concentration value from the curve for this OD.
(§2) Cross-reactivity was calculated according to the following formula: % CR=IC50, UR-144 N-pentanoic acid/IC50, cross reactant×100 Where % CR is the percentage cross-reactivity, IC50, UR-144 N-pentanoic acid is the concentration of UR-144 N-pentanoic acid that causes 50% displacement of signal and IC50, cross reactant is the concentration of the cannabinoid/metabolite/selected molecule that causes 50% displacement of signal.
In order to determine the specificity of the competitive ELISAs, standard solutions of a range of structurally related synthetic cannabinoids and their metabolites were prepared in TBST (Tris-Buffered Saline and Tween 20). Using the calibration curves generated and employing a single level of cross reactants, these were used to determine the cross-reactivity of the immunoassays with these substances.

For test [2] the test system is unchanged. The test is described as follows: UR144/XLR11 Synthetic Cannabinoids (Spice) ELISA, antiserum raised to Immunogen I (third bleed). The test is classed as binding, sheep. As to conditions: for Concentration of compounds that elicit a negative response: Table 4, negative response at this concentration; for % Cross-Reactivity: Table 4, relative to UR144 N-Pentanoic Acid = 100. Here is the method:
as §1, §2
A further assay was carried out in accordance with the protocol described in Example 9 using Immunogen I.
In general terms: ELISA stands for enzyme-linked immunosorbent assay.

Test [3] relates to antibodies provided in European patent application number 2,487,155. As to conditions: antibodies of EP 2,487,155; cited from earlier work.
A further test deals with CB1 receptor (Homo sapiens, UniProt P21554). As to conditions: CB1 versus CB2; cited from earlier work.
The mark [4] stands for this setting: Table 2, cross-reactant at 100 ng/ml (single level).
Setting [5] is: Table 2, cross-reactant tested at 100 ng/ml.
Setting [6] is: Table 2, cross-reactant tested at 100 ng/ml, relative to UR-144 N-pentanoic acid.
The mark [7] stands for this setting: Table 1, B = absorbance at 450 nm at x ng/ml standard, B0 at 0 ng/ml, second bleed.
The mark [8] stands for this setting: Table 1, CR based on 100% for UR-144 N-pentanoic acid.
The mark [9] stands for this setting: Table 1, standard concentration which produces 50% B/B0, second bleed.

By IC50 is commonly meant the midpoint of a concentration-inhibition curve.

Chain of CB1 receptor (P21554 whole entry): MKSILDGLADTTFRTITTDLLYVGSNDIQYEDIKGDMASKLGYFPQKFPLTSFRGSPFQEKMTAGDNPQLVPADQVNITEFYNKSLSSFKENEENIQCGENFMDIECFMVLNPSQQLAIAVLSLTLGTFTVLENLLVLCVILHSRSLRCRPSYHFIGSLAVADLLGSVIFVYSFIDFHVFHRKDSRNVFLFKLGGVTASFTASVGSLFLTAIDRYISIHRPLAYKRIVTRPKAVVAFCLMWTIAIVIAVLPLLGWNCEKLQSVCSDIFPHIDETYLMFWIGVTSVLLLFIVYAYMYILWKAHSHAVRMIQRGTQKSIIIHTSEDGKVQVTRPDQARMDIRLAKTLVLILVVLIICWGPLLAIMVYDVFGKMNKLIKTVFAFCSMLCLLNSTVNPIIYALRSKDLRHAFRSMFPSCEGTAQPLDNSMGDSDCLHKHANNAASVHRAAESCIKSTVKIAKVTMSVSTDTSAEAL

On to `C=CCCCn1cc(C(=O)c2cccc3ccccc23)c2ccccc21` [JWH-022], for which the “% B/BO” value in test [1] (setting [4]) is on record as 91.83%. In test [1] (setting [5]), the half-inhibitory concentration (IC50) is above 0.1 µg/mL. The “% Cross-reactivity (CR)” value in test [1] (setting [6]) is below 3.0%. Besides, in test [2], the “Concentration of compounds that elicit a negative response” value (shortened to “Concentration”) is given as 100 ng/mL.

For the molecule `CCCCn1cc(C(=O)c2cccc3ccccc23)c2ccccc21` [JWH-073], the “% B/BO” value in test [1] (setting [4]) turned out to be 90.44%. Moreover, the “IC50” value in test [1] (setting [5]) was above 0.1 µg/mL. The “% Cross-reactivity (CR)” value in test [1] (setting [6]) is below 3.0%. In addition, the “Concentration” value in test [2] came out at 100 ng/mL.

For the molecule `CCCCCn1cc(C(=O)c2ccc(OC)c3ccccc23)c2ccccc21` [JWH-081], the “% B/BO” value in test [1] (setting [4]) was 97.10%. The “IC50” value in test [1] (setting [5]) was above 0.1 µg/mL. Moreover, the “% Cross-reactivity (CR)” value in test [1] (setting [6]) is reported as below 3.0%. For the same molecule, the “Concentration” value in test [2] is recorded as 100 ng/mL.

For the molecule `CCCCCn1c(C)c(C(=O)c2ccc(OC)c3ccccc23)c2ccccc21` [JWH-098], the “% B/BO” value in test [1] (setting [4]) amounted to 93.94%. Besides, in test [1] (setting [5]), the “IC50” value is above 0.1 µg/mL. Further, the “% Cross-reactivity (CR)” value in test [1] (setting [6]) is below 3.0%. In addition, the “Concentration” value in test [2] is on record as 100 ng/mL.

Take `CCCCCn1cc(C(=O)c2ccc(C)c3ccccc23)c2ccccc21` [JWH-122]: in test [1] (setting [4]), the “% B/BO” value is reported as 97.01%. Besides, the “IC50” value in test [1] (setting [5]) was above 0.1 µg/mL. In addition, in test [1] (setting [6]), the “% Cross-reactivity (CR)” value is given as below 3.0%. For the same molecule, the “Concentration” value in test [2] amounted to 100 ng/mL.

As for `O=C(c1cccc2ccccc12)c1cn(CCN2CCOCC2)c2ccccc12` [JWH-200], in test [1] (setting [4]), the “% B/BO” value was determined as 86.38%. In addition, the “IC50” value in test [1] (setting [5]) was above 0.1 µg/mL. In test [1] (setting [6]), the “% Cross-reactivity (CR)” value is below 3.0%. Also, in test [2], the “Concentration” value is recorded as 100 ng/mL.

For the molecule `CCCCCn1cc(C(=O)Cc2ccccc2OC)c2ccccc21` [JWH-250], in test [1] (setting [4]), the “% B/BO” value was determined as 85.90%. Besides, in test [1] (setting [5]), the “IC50” value was above 0.1 µg/mL. Moreover, the “% Cross-reactivity (CR)” value in test [1] (setting [6]) is below 3.0%. The “Concentration” value in test [2] is recorded as 100 ng/mL.

For `CCCCCn1cc(C(=O)c2ccc(Cl)c3ccccc23)c2ccccc21` [JWH-398], in test [1] (setting [4]), the “% B/BO” value is reported as 88.86%. Besides, the “IC50” value in test [1] (setting [5]) was above 0.1 µg/mL. Also, the “% Cross-reactivity (CR)” value in test [1] (setting [6]) was below 3.0%. Moreover, in test [2], the “Concentration” value is 100 ng/mL.

Regarding `CCCCCn1cc(C(=O)c2ccc(OC)cc2)c2ccccc21` [RCS 4], in test [1] (setting [4]), the “% B/BO” value amounted to 80.02%. In addition, the “IC50” value in test [1] (setting [5]) is above 0.1 µg/mL. Moreover, in test [1] (setting [6]), the “% Cross-reactivity (CR)” value is below 3.0%. In addition, the “Concentration” value in test [2] was 100 ng/mL.

Consider `COc1ccccc1CC(=O)c1cn(CCC2CCCCC2)c2ccccc12` [RCS 8], for which the “% B/BO” value in test [1] (setting [4]) worked out at 88.15%. Moreover, in test [1] (setting [5]), the “IC50” value was above 0.1 µg/mL. Besides, the “% Cross-reactivity (CR)” value in test [1] (setting [6]) is on record as below 3.0%. Besides, the “Concentration” value in test [2] was 100 ng/mL.

As to `CC1(C)C(C(=O)c2cn(CCCCC(=O)O)c3ccccc23)C1(C)C` [UR-144 N-pentanoic acid], the “% B/BO” value in test [1] (setting [7]) amounted to 16.8%. In test [1] (setting [8]), the “% Cross-reactivity (CR)” value was determined as 100%. Besides, the “IC50” value in test [1] (setting [9]) is 0.003484 µg/mL. The “% Cross-Reactivity” value in test [2] is 100%.

As for `CC1(C)C(C(=O)c2cn(CCCCCO)c3ccccc23)C1(C)C` [UR-144 N-pentanol], the “% B/BO” value in test [1] (setting [7]) is 13.0%. In addition, in test [1] (setting [8]), the “% Cross-reactivity (CR)” value amounted to 109.2%. The “IC50” value in test [1] (setting [9]) worked out at 0.003191 µg/mL. Further, in test [2], the “% Cross-Reactivity” value is reported as 110%.

On to `CC1(C)C(C(=O)c2c[nH]c3ccccc23)C1(C)C` [UR-144 desalkyl], for which the “% B/BO” value in test [1] (setting [7]) came to 38.5%. In addition, the “% Cross-reactivity (CR)” value in test [1] (setting [8]) stood at 18.1%. In test [1] (setting [9]), the “IC50” value was found to be 0.019207 µg/mL. Also, in test [2], the “% Cross-Reactivity” value stood at 13%.

Consider `CCCCCn1cc(C(=O)C2C(C)(C)C2(C)C)c2ccccc21` [UR-144, (1-pentyl-1H-Indol-3-yl)(2,2,3,3-tetramethylcyclopropyl) methanone], for which the “% B/BO” value in test [1] (setting [7]) is reported as 40.5%. Further, in test [1] (setting [8]), the “% Cross-reactivity (CR)” value was found to be 15.3%. Besides, the “IC50” value in test [1] (setting [9]) was found to be 0.022815 µg/mL. For the same molecule, the “cross-reactivity (in words)” value in test [3] was “no significant cross-reactivity”. Also, in test [2], the “% Cross-Reactivity” value was 19%. Besides, at CB1 receptor, the “lower affinity for the CB1 receptor than for CB2” value is reported as 83 ×.

For `CC1(C)C(C(=O)c2cn(CCCCCF)c3ccccc23)C1(C)C` [XLR-11, (1-(5-fluoropentyl)-1H-Indol-3-yl)(2,2,3,3-tetramethylcyclopropyl) methanone], in test [1] (setting [7]), the “% B/BO” value was 24.0%. In addition, the “% Cross-reactivity (CR)” value in test [1] (setting [8]) worked out at 36.9%. In addition, the “IC50” value in test [1] (setting [9]) was determined as 0.009454 µg/mL. For the same molecule, the “% Cross-Reactivity” value in test [2] is 29%.
